According to patent EP0364941A1, “Branched-chain alkyl esters of 2-(4-(2-piperidino ethoxy)benzoyl)benzoic acid, processes for their preparation and their use as spasmolytic agents” (HOECHST AKTIENGESELLSCHAFT, priority 1988, dated 1990):
Read-outs that look alike come from different tables or passages of the source.

Experiments:
small intestine [1] = assay: Motility of the small intestine in the conscious dog; assay type: in vivo; conditions: for Area under the contraction curve, Postdrug 10 min: 10 min postdrug; for Area under the contraction curve, Postdrug 10 min / Area under the contraction curve, Postdrug 20 min / Area under the contraction curve, Postdrug 30 min / Area under the contraction curve, Postdrug 40 min / Area under the contraction curve, Postdrug 50 min / Area under the contraction curve, Postdrug 60 min / Area under the contraction curve, Predrug -20 - 0: phase I and II; for Area under the contraction curve, Postdrug 20 min: 20 min postdrug; for Area under the contraction curve, Postdrug 30 min: 30 min postdrug; for Area under the contraction curve, Postdrug 40 min: 40 min postdrug; for Area under the contraction curve, Postdrug 50 min: 50 min postdrug; for Area under the contraction curve, Postdrug 60 min: 60 min postdrug; for Inhibition Maximal / Inhibition Mean / ED50: phase I+II activity; for Area under the contraction curve, Predrug -20 - 0: predrug baseline -20 - 0 min; for Duration of action: when postdrug values reached 90 % or more of predrug values; for ED50: Canis lupus familiaris, iv
From the text: Male dogs (THG Tierhandelsgesellschaft Rodenbach, Hoe:BEAK (Beagle)) weighing 15 - 20 kg were used in all experiments. At least 4 weeks prior to the experiment the dogs had been equipped with miniaturized strain gage force transducers (T1-T3) (2x4 mm), sutured onto the gut at the locations mentioned below. The cables of the transducers were embedded into a cannula which carried the plug for external electric connection. This stainless steel cannula was implanted into the abdominal wall, close below the costal arch. Each transducer was connected to a measuring bridge. The signals were on line stored using a HP 9835 A computer, allowing later analysis of the data. • T1 : Proximal jejunum • T2 : Distal jejunum • T3 : Ileum
18 hours prior to the experiment food was withdrawn from the animals, water ad libidum. All experiments started between 08:00 and 09:00 am.
The following motility parameters were determined: The integral under the […] at 10 min intervals (mNx10min) as an index of phase I + II activity. The duration of drug action (min.) The duration of the interdigestive migrating complex (IMC) (min) as a measure of phase III activity.
Test Compound II was given at doses of 0.2 and 0.5 mg/kg i.v. or 5 mg/kg i.g., dissolved in saline, in a volume of 1 ml/kg (i.v.) or 2 ml/kg (i.g.), n = 3 - 6. Control n = 26.
Buscopan was given at doses of 0.3 and 1 mg/kg i.v., dissolved in saline, in a volume of 1 ml/kg, n = 4 - 6. Pitofenone was given at doses of 1 mg/kg i.v., dissolved in saline, in a volume of 1 ml/kg, n = 8.
ID₅₀-values were determined graphically.

small intestine [2] = assay: Gastrointestinal propulsion (charcoal transport) in mice; assay type: in vivo
Description: Ref.: J.M.A. Zwagemakers and V. Claassen, Arzneim-Forsch/-Drug Res. 30 (II) Nr.9, p.1517 (1980).
The test compounds I and II were given orally by gavage in a range of 10 to 100 mg/kg doses 30 min before charcoal suspension (0.2 ml/animal, 10% charcoal in 5% gum acacia) in 18 hrs fasted mice (male or female, weight range 18 to 25 g). 30 min after administration of charcoal animals were killed and the extent of charcoal propulsion in the small intestine was measured. The inhibitory activity of test compound on charcoal transport was assessed as percent inhibition compared to length of intestine. For control group 10 ml/kg of saline was given.

Compound: CC(C)OC(=O)c1ccccc1C(=O)c1ccc(OCCN2CCCCC2)cc1.Cl [Test Compound II, Isopropyl-2-[4-(2-piperidino-ethoxy)-benzoyl]-benzoate hydrochloride]
- Area under the contraction curve, Postdrug 10 min (small intestine [1]; 0.2 mg/kg i.v.): 1.54 mN x 10 min
- Area under the contraction curve, Postdrug 20 min (small intestine [1]; 0.2 mg/kg i.v.): 1.42 mN x 10 min
- Area under the contraction curve, Postdrug 30 min (small intestine [1]; 0.2 mg/kg i.v.): 1.88 mN x 10 min
- Area under the contraction curve, Postdrug 40 min (small intestine [1]; 0.2 mg/kg i.v.): 1.77 mN x 10 min
- Area under the contraction curve, Postdrug 50 min (small intestine [1]; 0.2 mg/kg i.v.): 1.78 mN x 10 min
- Area under the contraction curve, Postdrug 60 min (small intestine [1]; 0.2 mg/kg i.v.): 2.19 mN x 10 min
- Inhibition Maximal (small intestine [1]; 0.2 mg/kg i.v.): 34%
- Inhibition Mean (small intestine [1]; 0.2 mg/kg i.v.): 22 ± 4%
- Area under the contraction curve, Predrug -20 - 0 (small intestine [1]; 0.2 mg/kg i.v.): 2.15 mN x 10 min
- Duration of action (small intestine [1]; 0.2 mg/kg i.v.): 50 min
- duration of inhibitory effect (small intestine [1]; 0.5 mg/kg i.v., conscious dog): approximately one
- Area under the contraction curve, Postdrug 10 min (small intestine [1]; 0.5 mg/kg i.v.): 0.54 mN x 10 min
- Area under the contraction curve, Postdrug 20 min (small intestine [1]; 0.5 mg/kg i.v.): 0.50 mN x 10 min
- Area under the contraction curve, Postdrug 30 min (small intestine [1]; 0.5 mg/kg i.v.): 0.99 mN x 10 min
- Area under the contraction curve, Postdrug 40 min (small intestine [1]; 0.5 mg/kg i.v.): 1.17 mN x 10 min
- Area under the contraction curve, Postdrug 50 min (small intestine [1]; 0.5 mg/kg i.v.): 1.61 mN x 10 min
- Area under the contraction curve, Postdrug 60 min (small intestine [1]; 0.5 mg/kg i.v.): 2.46 mN x 10 min
- Inhibition Maximal (small intestine [1]; 0.5 mg/kg i.v.): 81%
- Inhibition Mean (small intestine [1]; 0.5 mg/kg i.v.): 54 ± 11%
- Area under the contraction curve, Predrug -20 - 0 (small intestine [1]; 0.5 mg/kg i.v.): 2.62 mN x 10 min
- Duration of action (small intestine [1]; 0.5 mg/kg i.v.): 60 min
- Duration of cycles (small intestine [1]; 5 mg/kg intragastrical, Phase III activity): 298 ± 18 min
- inhibition of phase III activity (small intestine [1]; 5 mg/kg intragastrically, conscious dog): pronounced inhibition
- ED50 (small intestine [1]; conscious dog, read-out: intravenous IC₅₀-values determined from maximal inhibition): 0.22 mg/kg
- ED50 (small intestine [1]; determined graphically, read-out: ID₅₀): 0.26 mg/kg
- Percent Inhibition (small intestine [2]; 10 mg/kg p.o.): 38.0 ± 4.0%
- Percent Inhibition (small intestine [2]; 30 mg/kg p.o.): 41.0 ± 3.0%
- Percent Inhibition (small intestine [2]; 60 mg/kg p.o.): 46.0 ± 5.0%
